pIC50: −log10 of the molar value.
Tests used:
[1] = target: T1, Signal transducer and activator of transcription 6 (Homo sapiens, UniProt P42226); assay: Inhibition of STAT6 in IL4-stimulated human FW4 reporter cells by luciferase assay
T1 sequence (P42226 whole entry): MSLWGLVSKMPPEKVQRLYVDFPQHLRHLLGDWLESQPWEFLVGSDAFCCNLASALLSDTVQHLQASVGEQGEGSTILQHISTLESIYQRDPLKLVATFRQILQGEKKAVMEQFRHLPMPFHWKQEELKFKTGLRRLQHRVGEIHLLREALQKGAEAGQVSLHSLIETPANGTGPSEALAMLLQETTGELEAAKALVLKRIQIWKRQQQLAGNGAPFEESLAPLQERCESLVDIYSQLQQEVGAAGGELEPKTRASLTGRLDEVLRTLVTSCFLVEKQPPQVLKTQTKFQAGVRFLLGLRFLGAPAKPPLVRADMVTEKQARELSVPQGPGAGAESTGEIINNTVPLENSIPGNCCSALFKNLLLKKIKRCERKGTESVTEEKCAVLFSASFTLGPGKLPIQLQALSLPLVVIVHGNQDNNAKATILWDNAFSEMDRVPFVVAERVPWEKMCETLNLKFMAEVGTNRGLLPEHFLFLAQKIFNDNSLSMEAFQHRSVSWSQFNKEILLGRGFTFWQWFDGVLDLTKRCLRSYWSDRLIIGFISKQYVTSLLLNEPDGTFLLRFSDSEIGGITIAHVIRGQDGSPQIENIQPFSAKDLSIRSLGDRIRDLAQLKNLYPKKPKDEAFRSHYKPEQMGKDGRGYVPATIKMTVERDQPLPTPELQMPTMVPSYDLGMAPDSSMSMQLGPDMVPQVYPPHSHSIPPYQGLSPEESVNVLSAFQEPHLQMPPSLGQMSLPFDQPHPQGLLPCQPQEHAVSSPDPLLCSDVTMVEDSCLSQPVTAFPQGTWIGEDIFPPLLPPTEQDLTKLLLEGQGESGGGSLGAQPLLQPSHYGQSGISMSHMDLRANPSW

CYP3A4 [2] = target: T2, CYP3A4 (Homo sapiens, UniProt P08684); assay: Inhibition of CYP3A4 in human liver microsomes assessed as residual activity at 5 uM; format: ADME, Microsome; conditions: read-out: Activity
CYP3A4 [3] = target: T2, CYP3A4; assay: Inhibition of CYP3A4 in human liver microsomes assessed as residual activity at 5 uM after 30 mins; format: ADME, Microsome; conditions: read-out: Activity
T-cell = assay: Inhibition of IL4 production in C57BL/6 mouse T cell after 16 hrs by T cell differentiation assay; format: functional, cell-based; conditions: C57BL/6, T-cell
Mus musculus = species on record: Mus musculus; assay: Antiasthmatic activity in OVA-induced pulmonary eosinophila BALB/c mouse model assessed as suppression of eosinophil infiltration in lung treated 30 mins before and 24, 48 hrs after OVA challenge; format: functional, organism-based

T2 sequence (P08684 whole entry): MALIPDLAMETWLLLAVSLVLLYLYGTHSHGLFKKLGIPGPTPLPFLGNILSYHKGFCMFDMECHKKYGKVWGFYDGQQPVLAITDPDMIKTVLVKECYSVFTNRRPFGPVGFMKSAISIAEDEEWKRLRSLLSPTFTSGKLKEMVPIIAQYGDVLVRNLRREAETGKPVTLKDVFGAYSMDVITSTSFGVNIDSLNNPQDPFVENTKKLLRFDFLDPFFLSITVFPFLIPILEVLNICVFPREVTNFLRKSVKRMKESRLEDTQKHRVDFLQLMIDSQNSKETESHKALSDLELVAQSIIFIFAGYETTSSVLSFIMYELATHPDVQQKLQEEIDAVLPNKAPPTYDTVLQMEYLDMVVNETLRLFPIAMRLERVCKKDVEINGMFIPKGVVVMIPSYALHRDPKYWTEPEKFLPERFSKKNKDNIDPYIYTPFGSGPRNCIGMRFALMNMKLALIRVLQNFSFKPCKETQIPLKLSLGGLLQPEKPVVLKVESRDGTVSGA

| SMILES | pIC50 [1] | activity at 5 µM (CYP3A4 [2]) | activity at 0.5 h, 5 µM (CYP3A4 [3]) | pIC50 (T-cell) | Activity (Mus musculus) |
| --- | --- | --- | --- | --- | --- |
| NC(=O)c1cnc(Nc2ccc(N3CCOCC3)cc2)nc1NCc1c(F)ccc(F)c1F | 9.15 | 100% | 31% |  |  |
| Fc1ccc(Cn2ccc3cnc(Nc4ccc(N5CCOCC5)cc4)nc32)cc1 | 5.39 | 82% | 43% |  |  |
| Fc1cc(F)cc(Cn2ccc3cnc(Nc4ccc(N5CCOCC5)cc4)nc32)c1 | 6.92 | 80% | 37% |  |  |
| Fc1ccccc1Cn1ccc2cnc(Nc3ccc(N4CCOCC4)cc3)nc21 | 6.66 | 78% | 32% |  |  |
| CN1CCN(c2ccc(Nc3ncc4ccn(Cc5cc(F)cc(F)c5)c4n3)cc2)CC1 | 8.49 | 90% | 88% |  |  |
| NC(=O)CN1CCN(c2ccc(Nc3ncc4ccn(Cc5cc(F)cc(F)c5)c4n3)cc2)CC1 | 8.72 | 104% | 85% | 8.62 | Dose-dependent effect |
| NCCN1CCN(c2ccc(Nc3ncc4ccn(Cc5cc(F)cc(F)c5)c4n3)cc2)CC1 | 7.47 | 65% | 105% |  |  |
| NC(=O)c1cnc(Nc2ccc(N3CCOCC3)cc2)nc1NCc1ccccc1 | 8.19 |  |  |  |  |
| c1ccc(CN2CCc3cnc(Nc4ccc(N5CCOCC5)cc4)nc32)cc1 | 5.08 |  |  |  |  |
| Fc1cc(F)cc(Cn2ccc3cnc(Nc4ccc(N5CCNCC5)cc4)nc32)c1 | 7.92 | 74% | 95% |  |  |
| CNC(=O)CN1CCN(c2ccc(Nc3ncc4ccn(Cc5cc(F)cc(F)c5)c4n3)cc2)CC1 | 8.33 | 85% | 77% |  |  |
| O=C(O)CN1CCN(c2ccc(Nc3ncc4ccn(Cc5cc(F)cc(F)c5)c4n3)cc2)CC1 | 7.59 | 100% | 98% |  |  |
| Fc1cccc(Cn2ccc3cnc(Nc4ccc(N5CCOCC5)cc4)nc32)c1 | 7.43 | 97% | 56% |  |  |
| c1ccc(Cn2ccc3cnc(Nc4ccc(N5CCOCC5)cc4)nc32)cc1 | 6.40 | 88% | 34% |  |  |
| OCCN1CCN(c2ccc(Nc3ncc4ccn(Cc5cc(F)cc(F)c5)c4n3)cc2)CC1 | 8.25 | 86% | 86% |  |  |

From ChEMBL document CHEMBL1152605, “Novel 7H-pyrrolo[2,3-d]pyrimidine derivatives as potent and orally active STAT6 inhibitors” (Bioorg Med Chem, 2009)
